The results in this text go back to patent US10670605B2, “Cysteine reactive probes and uses thereof” (The Scripps Research Institute, priority 2015, dated 2020).

Structures are written as SMILES. “And” between values parts separate entries of the source, which are not always exact repeats. Identical values can stand only once.

Assay in all cases: Competitive isoTOP-ABPP, cell lysates
Holding throughout (format): binding

One test deals with T1, USP22 C171 (Q9UPT9) (Homo sapiens, UniProt Q9UPT9).
T1 sequence (Q9UPT9 1-525): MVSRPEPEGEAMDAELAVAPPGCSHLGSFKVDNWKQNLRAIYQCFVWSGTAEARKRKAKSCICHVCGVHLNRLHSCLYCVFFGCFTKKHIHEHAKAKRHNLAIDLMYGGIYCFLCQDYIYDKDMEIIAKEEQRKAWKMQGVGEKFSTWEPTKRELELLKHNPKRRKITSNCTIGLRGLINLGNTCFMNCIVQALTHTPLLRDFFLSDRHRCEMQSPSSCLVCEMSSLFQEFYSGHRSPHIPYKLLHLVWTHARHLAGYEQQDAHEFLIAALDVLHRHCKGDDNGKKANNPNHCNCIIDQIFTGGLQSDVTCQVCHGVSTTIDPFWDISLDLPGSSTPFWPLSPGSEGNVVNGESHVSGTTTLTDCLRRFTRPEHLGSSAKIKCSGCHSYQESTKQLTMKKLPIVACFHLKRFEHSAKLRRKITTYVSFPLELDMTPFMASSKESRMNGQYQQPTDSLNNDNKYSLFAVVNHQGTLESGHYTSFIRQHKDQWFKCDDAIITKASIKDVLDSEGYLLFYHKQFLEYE
The conditions noted are these: for isoTOP-ABPP reactivity ratio, Q9UPT9_C171 / isoTOP-ABPP reactivity profile ratio, Q9UPT9_C171: 500 μm.

For a further test, the target named is ZNF217 C286 (O75362) (Homo sapiens, UniProt O75362). The conditions noted are these: for isoTOP-ABPP reactivity ratio, O75362_C286 / isoTOP-ABPP reactivity profile ratio, O75362_C286: 500 μm.
Another test has as its target T2, ACAT1 C196 (P24752) (Homo sapiens, UniProt P24752).
T2 sequence (P24752 34-427): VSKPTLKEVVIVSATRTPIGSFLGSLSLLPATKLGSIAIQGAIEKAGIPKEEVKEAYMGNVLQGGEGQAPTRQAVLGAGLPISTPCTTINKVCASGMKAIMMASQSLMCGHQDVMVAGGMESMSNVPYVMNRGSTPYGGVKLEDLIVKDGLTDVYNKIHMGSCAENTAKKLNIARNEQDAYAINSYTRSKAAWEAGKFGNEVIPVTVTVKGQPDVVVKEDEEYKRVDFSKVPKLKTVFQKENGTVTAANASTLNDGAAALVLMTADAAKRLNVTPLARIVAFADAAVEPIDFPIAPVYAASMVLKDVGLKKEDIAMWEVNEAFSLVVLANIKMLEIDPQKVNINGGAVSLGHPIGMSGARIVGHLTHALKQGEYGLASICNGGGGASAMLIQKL
The conditions noted are these: for isoTOP-ABPP reactivity ratio, P24752_C196 / isoTOP-ABPP reactivity profile ratio, P24752_C196: 500 μm.

The target in a further test is T3, MGMT C150 (P16455) (Homo sapiens, UniProt P16455).
T3 sequence (P16455 1-207): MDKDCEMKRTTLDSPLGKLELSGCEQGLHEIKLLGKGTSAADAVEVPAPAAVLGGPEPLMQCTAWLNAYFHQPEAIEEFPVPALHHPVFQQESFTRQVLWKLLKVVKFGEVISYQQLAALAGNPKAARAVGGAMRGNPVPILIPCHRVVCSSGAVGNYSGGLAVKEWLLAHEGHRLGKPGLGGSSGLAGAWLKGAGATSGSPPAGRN
The note with it: for isoTOP-ABPP reactivity ratio, P16455_C150 / isoTOP-ABPP reactivity profile ratio, P16455_C150: 500 μm, in-vitro_ramos.

Chain of ZNF217 C286 (O75362) (O75362 whole entry): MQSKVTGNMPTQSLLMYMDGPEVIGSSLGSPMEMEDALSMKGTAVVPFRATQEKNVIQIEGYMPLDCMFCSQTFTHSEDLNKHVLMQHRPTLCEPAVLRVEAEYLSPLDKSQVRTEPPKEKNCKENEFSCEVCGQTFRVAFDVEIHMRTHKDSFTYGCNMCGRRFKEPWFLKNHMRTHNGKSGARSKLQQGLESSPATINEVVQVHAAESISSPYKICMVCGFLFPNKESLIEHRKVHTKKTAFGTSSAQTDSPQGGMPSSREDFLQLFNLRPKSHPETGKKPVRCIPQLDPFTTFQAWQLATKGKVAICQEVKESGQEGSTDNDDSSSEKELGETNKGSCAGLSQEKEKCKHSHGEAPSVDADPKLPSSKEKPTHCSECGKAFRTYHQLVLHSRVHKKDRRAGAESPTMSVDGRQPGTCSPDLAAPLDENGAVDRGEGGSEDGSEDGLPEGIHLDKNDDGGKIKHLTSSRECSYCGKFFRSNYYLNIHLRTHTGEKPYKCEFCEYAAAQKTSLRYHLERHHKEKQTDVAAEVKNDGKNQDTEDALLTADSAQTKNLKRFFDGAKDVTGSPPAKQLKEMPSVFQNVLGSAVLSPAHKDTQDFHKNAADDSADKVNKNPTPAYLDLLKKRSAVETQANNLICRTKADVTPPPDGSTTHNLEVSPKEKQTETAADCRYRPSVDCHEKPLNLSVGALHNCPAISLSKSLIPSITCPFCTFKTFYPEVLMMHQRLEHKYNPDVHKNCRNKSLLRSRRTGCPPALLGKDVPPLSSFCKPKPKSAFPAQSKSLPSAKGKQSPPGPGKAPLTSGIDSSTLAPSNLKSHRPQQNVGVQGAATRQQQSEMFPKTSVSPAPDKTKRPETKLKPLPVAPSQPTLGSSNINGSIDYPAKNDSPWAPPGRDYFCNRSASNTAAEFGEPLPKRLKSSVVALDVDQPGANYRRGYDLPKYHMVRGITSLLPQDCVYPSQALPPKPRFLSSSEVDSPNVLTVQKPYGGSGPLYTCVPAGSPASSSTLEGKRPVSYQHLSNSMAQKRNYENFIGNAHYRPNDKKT

Take `CC(Cl)C(=O)Nc1cc(C(F)(F)F)cc(C(F)(F)F)c1` (stereo not drawn) [compound 25]: the “isoTOP-ABPP ratio (reactivity profile), Q9UPT9_C171” value (shortened to “isoTOP-ABPP ratio … Q9UPT9_C171”) at USP22 C171 (Q9UPT9) (500 μm in-vitro ramos_231) amounted to 1.1. Also, on ZNF217 C286 (O75362) (500 μm in-vitro ramos_231), the “isoTOP-ABPP ratio (reactivity profile), O75362_C286” value (“isoTOP-ABPP ratio … O75362_C286” below) amounted to 20.0. In addition, the “isoTOP-ABPP ratio (reactivity profile), P24752_C196” value (shortened to “isoTOP-ABPP ratio … P24752_C196”) on ACAT1 C196 (P24752) (500 μm in-vitro ramos_231) was 0.9.
In the case of `O=C(/C=C/c1ccccc1)Nc1cc(C(F)(F)F)cc(C(F)(F)F)c1` [compound 26], the “isoTOP-ABPP ratio … Q9UPT9_C171” value on USP22 C171 (Q9UPT9) (500 μm in-vitro ramos) worked out at 1.0. In addition, on MGMT C150 (P16455) (500 μm in-vitro ramos), the “isoTOP-ABPP ratio (reactivity profile), P16455_C150” value (shortened to “isoTOP-ABPP ratio … P16455_C150”) amounted to 0.9. Moreover, the “isoTOP-ABPP ratio … P24752_C196” value at ACAT1 C196 (P24752) (500 μm in-vitro ramos) came to 1.0.
Regarding `CC(C)CCOCCNC(=O)CCl` [compound 27], the “isoTOP-ABPP ratio … Q9UPT9_C171” value on USP22 C171 (Q9UPT9) (500 μm in-vitro ramos) turned out to be 1.2. For the same compound, the figures for the “isoTOP-ABPP ratio … P16455_C150” value at MGMT C150 (P16455) (500 μm in-vitro ramos) and at MGMT C150 (P16455) (500 μm in-vitro ramos_231) were 2.3 and 1.0, respectively. Further, the “isoTOP-ABPP ratio … O75362_C286” value at ZNF217 C286 (O75362) (500 μm in-vitro ramos) is listed as 1.0. Besides, the “isoTOP-ABPP ratio … P24752_C196” value at ACAT1 C196 (P24752) (500 μm in-vitro ramos) is 1.1; on ACAT1 C196 (P24752) (500 μm in-vitro ramos_231), 0.9 and 1.0.
`COc1ccccc1OCCNC(=O)CCl` [compound 28]: the “isoTOP-ABPP ratio … Q9UPT9_C171” value on USP22 C171 (Q9UPT9) (500 μm in-vitro ramos) is 1.3. For the same compound, the “isoTOP-ABPP ratio … P16455_C150” value at MGMT C150 (P16455) (500 μm in-vitro ramos) was 1.7. Further, the “isoTOP-ABPP ratio … O75362_C286” value at ZNF217 C286 (O75362) (500 μm in-vitro ramos) and on ZNF217 C286 (O75362) (500 μm in-vitro ramos_231) was 1.0 throughout. Further, the results for the “isoTOP-ABPP ratio … P24752_C196” value at ACAT1 C196 (P24752) (500 μm in-vitro ramos) and on ACAT1 C196 (P24752) (500 μm in-vitro ramos_231) were 1.1 and 1.0, respectively.
As for `CCN(CC)c1ccc(S(N)(=O)=O)cc1NC(=O)CCl` [compound 30], the “isoTOP-ABPP reactivity ratio, Q9UPT9_C171” value on USP22 C171 (Q9UPT9) (in-vitro_ramos) was 2.3. For the same compound, the “isoTOP-ABPP reactivity ratio, P16455_C150” value at MGMT C150 (P16455) is given as 5.1. Besides, on ZNF217 C286 (O75362) (in-vitro_ramos), the “isoTOP-ABPP reactivity ratio, O75362_C286” value was determined as 2.1. The “isoTOP-ABPP ratio … P24752_C196” value at ACAT1 C196 (P24752) (500 μm in-vitro ramos) stood at 0.8. For the same compound, the “isoTOP-ABPP reactivity ratio, P24752_C196” value at ACAT1 C196 (P24752) (in-vitro_ramos) is given as 1.1.
With `C=CC(=O)N(Cc1cccnc1)c1cc(C(F)(F)F)cc(C(F)(F)F)c1` [compound 31], the “isoTOP-ABPP reactivity ratio, Q9UPT9_C171” value at USP22 C171 (Q9UPT9) (in-vitro_ramos_231) came out at 2.1. Also, the “isoTOP-ABPP reactivity ratio, P16455_C150” value on MGMT C150 (P16455) came to 2.8. For the same compound, the “isoTOP-ABPP reactivity ratio, P24752_C196” value at ACAT1 C196 (P24752) (in-vitro_ramos) is 0.9; at ACAT1 C196 (P24752) (in-vitro_ramos_231) it was 1.2.
Regarding `CC(C)(C)c1cc(NC(=O)CCl)on1` [compound 32], at USP22 C171 (Q9UPT9) (in-vitro_ramos), the “isoTOP-ABPP reactivity ratio, Q9UPT9_C171” value came to 9.3. In addition, the “isoTOP-ABPP reactivity ratio, P16455_C150” value on MGMT C150 (P16455) came out at 20.0. The “isoTOP-ABPP reactivity ratio, P24752_C196” value at ACAT1 C196 (P24752) (in-vitro_ramos) worked out at 2.0; at ACAT1 C196 (P24752) (in-vitro_ramos_231), 2.3.
Turning to `O=C(CCl)Nc1ccccc1C1CCCCCC1` [compound 35], the “isoTOP-ABPP reactivity ratio, Q9UPT9_C171” value on USP22 C171 (Q9UPT9) (in-vitro_ramos) was 1.5. In addition, at MGMT C150 (P16455), the “isoTOP-ABPP reactivity ratio, P16455_C150” value turned out to be 1.3. Also, the results for the “isoTOP-ABPP reactivity ratio, P24752_C196” value at ACAT1 C196 (P24752) (in-vitro_ramos) and on ACAT1 C196 (P24752) (in-vitro_ramos_231) were 1.4 and 0.9, respectively.
Turning to `C=CC(=O)Nc1cc(F)c(N2CCN(C(=O)OC(C)(C)C)CC2)c(F)c1` [compound 38], on USP22 C171 (Q9UPT9) (in-vitro_ramos_231), the “isoTOP-ABPP reactivity ratio, Q9UPT9_C171” value came to 1.4. On MGMT C150 (P16455), the “isoTOP-ABPP reactivity ratio, P16455_C150” value came to 1.8. Further, the “isoTOP-ABPP reactivity ratio, O75362_C286” value on ZNF217 C286 (O75362) (in-vitro_ramos) is given as 1.2; at ZNF217 C286 (O75362) (in-vitro_ramos_231), 0.9. Further, the “isoTOP-ABPP reactivity ratio, P24752_C196” value on ACAT1 C196 (P24752) (in-vitro_ramos) was determined as 1.3; at ACAT1 C196 (P24752) (in-vitro_ramos_231) it was 1.0.
In the case of `Cc1ccc(C=C(C#N)C(=O)NCCN2CCOCC2)cc1` [compound 41], the “isoTOP-ABPP reactivity ratio, Q9UPT9_C171” value on USP22 C171 (Q9UPT9) (in-vitro_ramos) was 1.4; at USP22 C171 (Q9UPT9) (in-vitro_ramos_231), 3.0. For the same compound, on MGMT C150 (P16455), the “isoTOP-ABPP reactivity ratio, P16455_C150” value was found to be 0.9. Also, on ZNF217 C286 (O75362) (in-vitro_ramos), the “isoTOP-ABPP reactivity ratio, O75362_C286” value came out at 0.6. The “isoTOP-ABPP reactivity ratio, P24752_C196” value at ACAT1 C196 (P24752) (in-vitro_ramos) is listed as 1.0; on ACAT1 C196 (P24752) (in-vitro_ramos_231), 1.3.
Take `N#CC(=Cc1ccc(-c2ccccc2Cl)o1)C(N)=O` [compound 42]: the “isoTOP-ABPP reactivity profile ratio, Q9UPT9_C171” value on USP22 C171 (Q9UPT9) (in-vitro_ramos) amounted to 1.0. In addition, at MGMT C150 (P16455), the “isoTOP-ABPP reactivity profile ratio, P16455_C150” value was found to be 0.8. Moreover, the “isoTOP-ABPP reactivity profile ratio, O75362_C286” value on ZNF217 C286 (O75362) (in-vitro_ramos) is on record as 1.0. Also, the “isoTOP-ABPP reactivity profile ratio, P24752_C196” value on ACAT1 C196 (P24752) (in-vitro_ramos) was found to be 0.8.
As to `COc1cc(NC(=O)CCl)cc(OC)c1` [compound 43], at USP22 C171 (Q9UPT9) (in-vitro_ramos), the “isoTOP-ABPP reactivity profile ratio, Q9UPT9_C171” value was 4.5. Further, on MGMT C150 (P16455), the “isoTOP-ABPP reactivity profile ratio, P16455_C150” value is 20.0. The entries for the “isoTOP-ABPP reactivity profile ratio, O75362_C286” value at ZNF217 C286 (O75362) (in-vitro_ramos) and at ZNF217 C286 (O75362) (in-vitro_ramos_231) were 1.2 and 1.9, respectively. In addition, the results for the “isoTOP-ABPP reactivity profile ratio, P24752_C196” value at ACAT1 C196 (P24752) (in-vitro_ramos) and at ACAT1 C196 (P24752) (in-vitro_ramos_231) were 2.3 and 2.4, respectively.
